Strand notation (5' to 3'): a small letter for the sugar, then the base; units joined by * are phosphorothioate-linked, units joined directly phosphodiester-linked; [ ] holds rarer units or linkages, { } end groups; capitals alone tell only the bases. e = 2'-O-(2-methoxyethyl) (MOE); [5mC] = 5-methylcytosine; d = 2'-deoxy (DNA)
Assays:
[1] = tested on: hB7-2 mRNA; assay: Ribonuclease protection assay of hB7-2 mRNA in transfected COS-7 cells; format: cell-based, human
In short: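 COS-7 cells transfected with hB7-2 were treated with antisense oligonucleotides at varied concentrations, mismatch controls included; RNA taken 18 h after treatment. 5 μg total RNA hybridised overnight at 42° C with 32P antisense probe (B7-2 positions 1044-1391) or beta-actin probe, RNase A/T1 digested, gel-resolved and quantified by phosphorimaging.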

[2] = tested on: human B7-2; assay: Cell surface expression of B7-2 in transfected COS-7 cells by flow cytometry; format: cell-based; settings: for % Surface Inhibition / % Surface Expression: COS-7 cells, B7-2 cell surface; for % Surface Expression: basal = 100%; for % B7-2 EXPRESSION: human B7 cell surface expression, Table 16
In short: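 COS-7 cells transfected with B7-2 plasmid (calcium phosphate), then treated with antisense oligonucleotides with 15 μg/mL Lipofectin for 4 h, followed by oligonucleotide in DMEM/10% FCS. After 24-48 h, cells stained with FITC- or PE-conjugated anti-CD86 for 30 min at 4 °C and analysed by flow cytometry.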

[3] = tested on: human B7-1; assay: Cell surface expression of B7-1 in pcB7-1-transfected COS-7 cells by flow cytometry; format: cell-based; settings: for % B7-1 EXPRESSION: human B7 cell surface expression, Table 16; for % Surface Inhibition / % Surface Expression: COS-7 cells, B7-1 cell surface; for % Surface Expression: basal = 100%
Description: The ability of oligonucleotides to inhibit B7-1 expression was evaluated by measuring the cell surface expression of B7-1 in transfected COS-7 cells by flow cytometry.
A T-175 flask was seeded at 75% confluency with COS-7 cells (ATCC accession No. CRL 1651). The plasmid pcB7-1 was introduced into cells by standard calcium phosphate transfection. Following a 4 hour transfection, the cells were trypsinized and seeded in 12-well dishes at 80% confluency. The cells were allowed to adhere to the plastic for 1 hour and were then washed with phosphate-buffered saline (PBS). OptiMEM™ (GIBCO-BRL, Gaithersburg, Md.) medium was added along with 15 μg/mL of Lipofectin™ (GIBCO-BRL, Gaithersburg, Md.) and oligonucleotide at the indicated concentrations. After four additional hours, the cells were washed with phosphate buffered saline (PBS) and incubated with fresh oligonucleotide at the same concentration in DMEM (Dulbecco et al., Virol., 1959, 8, 396; Smith et al., Virol., 1960, 12, 185) with 10% fetal calf sera (FCS).
In order to monitor the effects of oligonucleotides on cell surface expression of B7-1, treated COS-7 cells were harvested by brief trypsinization 24-48 hours after oligonucleotide treatment. The cells were washed with PBS, then resuspended in 100 μL of staining buffer (PBS, 0.2% BSA, 0.1% azide) with 5 μL conjugated anti-B7-1-antibody (i.e., anti-hCD80-FITC, Ancell, Bayport, Minn.; FITC: fluorescein isothiocyanate). The cells were stained for 30 minutes at 4° C., washed with PBS, resuspended in 300 μL containing 0.5% paraformaldehyde. Cells were harvested and the fluorescence profiles were determined using a flow cytometer.
B7 antisense oligonucleotides were tested for their effect on cell surface expression of both B7-1 and B7-2. Cell surface expression was measured as described in Example 1. Experiments were done for both human B7 and mouse B7.
The oligonucleotides were screened as described in Example 2 except that the concentration of oligonucleotide was varied as shown in Table 18.

[4] = tested on: Human B7-1 mRNA; assay: Human B7-1 mRNA expression in COS-7 cells, screened as in Example 4; format: cell-based
[5] = COS-7 cells, B7-2 mRNA, oligonucleotide dose 10 nM
[6] = COS-7 cells, B7-2 mRNA, oligonucleotide dose 10 nM, basal = 100%
[7] = COS-7 cells, B7-2 mRNA, oligonucleotide dose 30 nM
[8] = COS-7 cells, B7-2 mRNA, oligonucleotide dose 30 nM, basal = 100%
[9] = COS-7 cells, B7-2 mRNA, oligonucleotide dose 100 nM
[10] = COS-7 cells, B7-2 mRNA, oligonucleotide dose 100 nM, basal = 100%
[11] = COS-7 cells, B7-2 mRNA, oligonucleotide dose 300 nM
[12] = COS-7 cells, B7-2 mRNA, oligonucleotide dose 300 nM, basal = 100%

Substance	% mRNA INHIBITION [1, 5]	% mRNA EXPRESSION [1, 6]	% mRNA INHIBITION [1, 7]	% mRNA EXPRESSION [1, 8]	% mRNA INHIBITION [1, 9]	% mRNA EXPRESSION [1, 10]	% mRNA INHIBITION [1, 11]	% mRNA EXPRESSION [1, 12]	% mRNA EXPRESSION ([1]; human B7-2 mRNA, Table 12)	% Surface Inhibition ([2]; dose 10 nM)	% Surface Expression ([2]; dose 10 nM)	% Surface Inhibition ([2]; dose 30 nM)	% Surface Expression ([2]; dose 30 nM)	% Surface Inhibition ([2]; dose 100 nM)	% Surface Expression ([2]; dose 100 nM)	% Surface Inhibition ([2]; dose 300 nM)	% Surface Expression ([2]; dose 300 nM)	% B7-2 EXPRESSION [2]	% B7-1 EXPRESSION [3]	% mRNA EXPRESSION ([4]; human B7-1 mRNA, Table 7)	also measured
22284 (eT*eG*e[5mC]*eG*eA*dG*d[5mC]*dT*d[5mC]*d[5mC]*d[5mC]*d[5mC]*dG*dT*dA*e[5mC]*e[5mC]*eT*e[5mC]*e[5mC]; antisense) [compound 22284]	8%	92%	28%	72%	41%	59%	52%	48%	30%	37%	63%	40%	60%	63%	37%	85%	15%	32%	88%	–	–
22287 (eA*eG*eA*eA*eT*dG*dT*dT*dA*d[5mC]*dT*d[5mC]*dA*dG*dT*e[5mC]*e[5mC]*e[5mC]*eA*eT; antisense) [compound 22287]	7%	93%	21%	79%	34%	66%	55%	45%	27%	7%	93%	40%	60%	68%	32%	85%	15%	35%	92%	–	–
22294 (eG*eG*eT*e[5mC]*e[5mC]*dA*dA*d[5mC]*dT*dG*dT*d[5mC]*d[5mC]*dG*dA*eA*eT*e[5mC]*eA*eA; antisense) [compound 22294]	7%	93%	5%	95%	42%	58%	55%	45%	21%	11%	89%	38%	62%	71%	29%	88%	12%	28%	77%	–	–
22316 (eG*e[5mC]*eT*e[5mC]*eA*d[5mC]*dG*dT*dA*dG*dA*dA*dG*dA*d[5mC]*e[5mC]*e[5mC]*eT*e[5mC]*e[5mC]; antisense) [compound 22316]	–	–	–	–	–	–	–	–	–	–	–	–	–	–	–	–	–	100%	31%	42%	% mRNA EXPRESSION ([4]; 10 nM, COS-7, Table 8): 99%; % mRNA INHIBITION ([4]; 10 nM, COS-7, Table 8): 1%; % mRNA EXPRESSION ([4]; 30 nM, COS-7, Table 8): 73%; % mRNA INHIBITION ([4]; 30 nM, COS-7, Table 8): 27%; % mRNA EXPRESSION ([4]; 100 nM, COS-7, Table 8): 58%; % mRNA INHIBITION ([4]; 100 nM, COS-7, Table 8): 42%; % mRNA EXPRESSION ([4]; 300 nM, COS-7, Table 8): 33%; % mRNA INHIBITION ([4]; 300 nM, COS-7, Table 8): 67%; % Surface Inhibition ([3]; dose 10 nM): 26%; % Surface Expression ([3]; dose 10 nM): 74%; % Surface Inhibition ([3]; dose 30 nM): 26%; % Surface Expression ([3]; dose 30 nM): 74%; % Surface Inhibition ([3]; dose 100 nM): 53%; % Surface Expression ([3]; dose 100 nM): 47%; % Surface Inhibition ([3]; dose 300 nM): 66%; % Surface Expression ([3]; dose 300 nM): 34%
22317 (eT*e[5mC]*e[5mC]*e[5mC]*eA*dG*dG*dT*dG*d[5mC]*dA*dA*dA*dA*d[5mC]*eA*eG*eG*e[5mC]*eA; antisense) [compound 22317]	–	–	–	–	–	–	–	–	–	–	–	–	–	–	–	–	–	91%	28%	43%	–
22320 (eT*eT*eG*eA*eG*dG*dT*dA*dT*dG*dG*dA*d[5mC]*dA*d[5mC]*eT*eT*eG*eG*eA; antisense) [compound 22320]	–	–	–	–	–	–	–	–	–	–	–	–	–	–	–	–	–	86%	37%	45%	–
